Laboratory results published in patent publication US20230076803A1, “COMPOUND AND DRUG CONJUGATE, AND PREPARATION METHOD AND USE THEREOF” (priority 2019, published 2023).
Read-outs that look alike come from different tables or passages of the source.

Assays:
HBsAg [1] = conditions: M-Tg HBV mice, 3 mg/kg subcutaneous single dose, period of up to 70 days
Description: HBV transgenic mice: named as M-Tg HBV, purchased from the Animal Department of Shanghai Public Health Center. […] Hereinafter, the transgenic mice were sometimes abbreviated as M-Tg model mice;
M-Tg HBV mice (purchased from the Animal Department of Shanghai Public Health Center) were used. […] The AAV virus used is rAAV8-1.3HBV, type D (ayw) virus, purchased from Beijing FivePlus Molecular Medicine Institute Co. Ltd., 1×10^12 viral genome (v.g.)/mL, Lot No. 2016123011. The AAV virus was diluted to 5×10^11 v.g./mL with sterilized PBS prior to the experiment. Each mouse was injected with 200 μL (that is, each mouse was injected with 1×10^11 v.g). […] Each conjugate was administered in the form of 0.2 mg/mL or 0.6 mg/mL (both calculated based on siRNA) in 0.9% aqueous sodium chloride solution, with an administration volume of 5 mL/kg mouse body weight; that is, the administration doses of each conjugate (calculated based on siRNA) were 1 mg/kg and 3 mg/kg. […] The blood was collected from mouse orbital venous plexus before administration and on day 7, 14, 21, 28, 35, 42, 49, 63, and 70 days after administration, and the serum HBsAg level was determined at each time point. […]
The inhibition rate against HBsAg is calculated according to the following equation:
wherein HBsAg content is expressed as the equivalents (UI) of HBsAg per millilitre (mL) of serum.

HBV mRNA [2] = experiment: Inhibition of HBV mRNA expression in liver of 44Bri mice, day 7 (Exp. Ex. 2-6); type: in vivo, HBV transgenic mice C57BL/6J-Tg(Alb1HBV)44Bri/J; conditions: 1 mg/kg subcutaneous, day 7 after administration
Text: (§1) HBV transgenic mice C57BL/6J-Tg(Alb1HBV)44Bri/J: purchased from Department of Laboratory Animal Science, Peking University Health Science Center. Mice with S/COV >10 were selected before the experiment. Hereinafter, the transgenic mice were sometimes abbreviated as 44Bri model mice;
In this experimental example, the inhibitory efficiency of different concentrations of Conjugate 32 on the expression level of HBV mRNA in HBV transgenic mice C57BL/6J-Tg (Alb1HBV) 44Bri/J was investigated. […]
The expression level of HBV mRNA in the liver tissue of each mouse was determined by real-time fluorescent quantitative PCR. Specifically, the total RNA extracted from the liver tissue of each mouse was reverse-transcribed into cDNA using ImProm-II™ reverse transcription kit (Promega) according to the instructions thereof, and then the expression level of HBV mRNA in liver tissue was determined by the fluorescent quantitative PCR kit (Beijing Cowin Biosciences Co., Ltd.) and the inhibitory efficiency was calculated. In this fluorescent quantitative PCR method, GAPDH gene was used as an internal control gene, and the HBV and GAPDH were detected by using the primers for HBV and GAPDH, respectively. […]

[3] = 90% cynomolgus monkey plasma, 37° C., period of up to 72 hours
Description: Therein, 0 hour is the time when 10 μL of the mixed solution was taken immediately after the conjugate solution was mixed well with 90% cynomolgus monkey plasma. After sampling at each time point, each mixed solution was diluted 5-fold with 1×PBS (pH7.4), and 10 μL of each diluted mixed solution was taken for electrophoresis.
20 wt % of non-denatured polyacrylamide gel was prepared. The samples for electrophoresis in each group of the above diluted samples were mixed with 4 μL of loading buffer (20 mM EDTA, 36 wt % glycerol, and 0.06 wt % aqueous solution of bromophenol blue) and loaded into each gel well for electrophoresis under 80 mA constant current for 60 minutes. After electrophoresis, the gel was stained with 1×Sybr Gold dye (Invitrogen, Cat. 11494) for 15 minutes and imaged.

HBV mRNA [4] = experiment: Inhibition of HBV mRNA on day 70 (Exp. Ex. 2-7, FIG. 9); type: in vivo, AAV-HBV low concentration model mice; conditions: 1 mg/kg or 3 mg/kg, day 70 after administration
Description: (§2) The AAV-HBV low concentration model mice were used.
In a further experiment, the inhibitory effect on HBV mRNA on day 70 was tested according to the detection method of Example 6 above, and the results are shown in FIG. 9.

HBV DNA = experiment: Time course of serum HBV DNA in AAV-HBV low concentration model mice (Exp. Ex. 2-7); type: in vivo; conditions: 3 mg/kg subcutaneous single dose
Text: as §2
Normalized expression level of HBV DNA=(HBV DNA content after administration/HBV DNA content before administration)×100%.

[5] = SD rats, subcutaneous single dose 0.5 mg/kg and 1 mg/kg
Description: In this Experimental Example, the rats in each experimental group (10 rats in each group, half male and half female) were administered with Conjugate 32 by subcutaneous injection respectively at a single dose of 1 mg/kg and 0.5 mg/kg of rat body weight. The plasma drug concentration and liver tissue drug concentration in rats at each time point were then measured.
First, SD rats were randomly divided into groups according to the body weight and gender of the rat using the [sequence] version 7.2.0 data system, and then the conjugates were administered at the designed doses, respectively. All animals were dosed based on body weight and subcutaneously administered at a single doses of 1 and 0.5 mg/kg (provided in the form of 0.1 mg/mL and 0.05 mg/mL in 0.9% aqueous sodium chloride solution, with a volume of 10 mL/kg). The rat's whole blood was collected from the jugular vein before administration and 5 minutes (±30 seconds), 30 minutes (±1 minute), 1 hour (±2 minutes), 2 hours (±2 minutes), 6 hours (±5 minutes), 24 hours (±10 minutes), 48 hours (±20 minutes), 72 hours (±20 minutes), 120 hours (±30 minutes), and 168 hours (±30 minutes) after administration. […]
The concentration of Conjugate 32 in rat plasma and liver tissue was quantitatively determined by HPLC-FLD (High Performance Liquid Fluorescence Chromatography) according to the following steps: […]

HBV mRNA [6] = experiment: Inhibition of HBV mRNA expression in liver of 44Bri mice, day 14 (Exp. Ex. 2-4); type: in vivo, HBV transgenic mice C57BL/6J-Tg(Alb1HBV)44Bri/J; conditions: 1 mg/kg subcutaneous single dose, day 14 after administration
Text: as §1
In this experimental example, the inhibitory efficiency of Conjugate 32 on the expression level of HBV mRNA in HBV-transgenic mice C57BL/6J-Tg (A 1b1HBV) 44Bri/J was investigated.
The HBV transgenic mice C57BL/6J-Tg (Alb1HBV) 44Bri/J used in this experimental example were purchased from the Department of Laboratory Animal Science, Peking University Health Science Center. […]
For each mouse, 1 μg of total RNA was taken, and the extracted total RNA was reverse-transcribed into cDNA using ImProm-II™ reverse transcription kit (Promega Crop.) according to the instructions thereof to obtain a solution containing cDNA, and then the expression level of HBV mRNA in liver tissue was determined by the fluorescent quantitative PCR kit (Beijing Cowin Biosciences Co., Ltd.). In this fluorescent quantitative PCR method, R-actin gene was used as an internal control gene, and HBV and 3-actin were detected by using primers for HBV and β-actin, respectively. […]

HBsAg [7] = conditions: AAV-HBV low concentration model mice, 3 mg/kg subcutaneous single dose
Description: The AAV-HBV low concentration model mice were used. After the animal models were successfully established, they were randomly divided into groups according to serum HBsAg content (five mice per group). […] The blank group was administered with only 5 mL/kg 1×PBS. Blood was collected from mouse orbital venous plexus before administration and on day 14, 28, 42, 56, 70, 84, 98, 112, 126, 140, 154, 168, 182, and 196 days after administration, and the serum HBsAg level was determined at each time point.
About 100 μL orbital blood was taken each time, and no less than 20 NL serum was collected after centrifugation. The HBsAg content in serum was determined by using HBsAg CLIA kit (Autobio, CL0310) according to the instructions provided by the manufacturer.
Normalized expression level of HBsAg=(HBsAg content after administration/HBsAg content before administration)×100%.

Conjugate 32: siRNA conjugate, S SEQ ID NO 367, AS SEQ ID NO 368, Table 2A; conjugated via Compound N-62 (sense CCUUGAGGCAUACUUCAAA; antisense UUUGAAGUAUGCCUCAAGGUU; conjugated via Compound N-62, position not given here)
inhibition rate against serum HBsAg (HBsAg [1]): up to 97.80% | inhibition rate against HBV mRNA in liver tissue (HBV mRNA [2]): up to 91.96% | stability in cynomolgus monkey plasma in vitro (semiquantitative) [3]: remain undegraded | inhibitory effect on HBV mRNA on day 70 (HBV mRNA [4]): can still inhibit the expression level of HBV mRNA to a certain extent | inhibition rate against HBV DNA in serum (HBV DNA): up to 85.7% | concentration in rat plasma over time [5]: rapidly decreased to below detection limit within a few hours | time for which the concentration in liver tissue maintained a higher and stable level [5]: at least 150 hours | inhibition rate against HBV mRNA in liver tissue (HBV mRNA [6]): up to 89.86% | inhibition rate against serum HBsAg (HBsAg [7]): up to 90.9%
